According to patent publication US9630977B2, “Cephalosporin derivatives and pharmaceutical compositions thereof” (Legochem Biosciences, Inc., priority 2011, dated 2017):
Converted amounts (≈) assume the structure as drawn.

Tests used:
Experiment in all cases: In vitro antibacterial activity test (broth microdilution)
Type in all cases: cell-based
[1] = system: K. pneumoniae 2011E; conditions: Klebsiella pneumoniae, 2011E, K. pneumoniae 2011E; read-out: MIC90
Method: (§1) To evaluate antibacterial activity of each of the compounds of Examples 1 to 68, in vitro antibacterial activity test was performed.
(§2) The in vitro antibacterial activity was evaluated by measuring MIC90 (ug/mL) of each of the compounds of Examples 1 to 68, which is defined as the lowest concentration of an antibiotic that will inhibit the visible growth of 90% of microorganisms after incubation as compared with a control group to which the antibiotic is not treated. MIC90 values were measured by the broth microdilution method developed by the Clinical and Laboratory Standards Institute (CLSI) (see CLSI M7-A5, Methods for Dilution Antimicrobial Susceptibility Test for Bacteria that Grow Aerobically-Fifth Edition (2000): CLSI, Villanova, Pa.).
(§3) In vitro antibacterial activity was measured with respect to the following 19 clinical isolates: M. catarrhalis; P. aeruginosa (5 strains); K. pneumoniae (6 strains); A. baumannii (3 strains); E. coli (2 strains); A. calcoaceticus; and E. cloacae.
(§4) Test compounds each (the cephalosporin derivative compounds prepared in Examples 1 to 68) were dissolved in DMSO at the concentration of 10,240 ug/mL, were diluted by two fold with DMSO, and then were diluted by twenty fold with sterilized distilled water. The final concentration in the antibacterial activity test was in the range of […] to 128 ug/mL, and the final concentration of DMSO used as an adjuvant was 2.5% (V/V).

[2] = system: A. baumannii 52; conditions: Acinetobacter baumannii; A. baumannii 52; read-out: MIC90
Method: as §1, §2, §3, §4

[3] = system: P. aeruginosa 37; conditions: Pseudomonas aeruginosa, 37, P. aeruginosa 37; read-out: MIC90
Method: as §1, §2, §3, §4

[4] = system: P. aeruginosa 6065Y; conditions: Pseudomonas aeruginosa, read-out: MIC90
Method: as §1, §2, §3, §4

[5] = system: P. aeruginosa 43; conditions: Pseudomonas aeruginosa; P. aeruginosa 43; read-out: MIC90
Method: as §1, §2, §3, §4

[6] = system: P. aeruginosa 40; conditions: Pseudomonas aeruginosa, 40, P. aeruginosa 40; read-out: MIC90
Method: as §1, §2, §3, §4

[7] = system: E. cloacae β19; conditions: Enterobacter cloacae, read-out: MIC90
Method: as §1, §2, §3, §4

[8] = system: E. coli AG100; conditions: Escherichia coli, AG100, E. coli AG100; read-out: MIC90
Method: as §1, §2, §3, §4

[9] = system: A. calcoaceticus ATCC15473; conditions: Acinetobacter calcoaceticus; A. calcoaceticus ATCC15473; read-out: MIC90
Method: as §1, §2, §3, §4

[10] = system: E. coli β4; conditions: Escherichia coli, read-out: MIC90
Method: as §1, §2, §3, §4

[11] = system: P. aeruginosa 1912E; conditions: Pseudomonas aeruginosa, 1912E, read-out: MIC90
Method: as §1, §2, §3, §4

[12] = system: A. baumannii 46; conditions: Acinetobacter baumannii; A. baumannii 46; read-out: MIC90
Method: as §1, §2, §3, §4

[13] = system: M. catarrhalis 2524; conditions: Moraxella catarrhalis; M. catarrhalis 2524; read-out: MIC90
Method: as §1, §2, §3, §4

[14] = system: A. baumannii 49; conditions: Acinetobacter baumannii; A. baumannii 49; read-out: MIC90
Method: as §1, §2, §3, §4

[15] = system: K. pneumoniae β14; conditions: Klebsiella pneumoniae, read-out: MIC90
Method: as §1, §2, §3, §4

MIC90 [1] | MIC90 [2] | MIC90 [3] | MIC90 [4] | MIC90 [5] | MIC90 [6] | MIC90 [7] | MIC90 [8] | MIC90 [9] | MIC90 [10] | MIC90 [11] | MIC90 [12] | MIC90 [13] | MIC90 [14] | MIC90 [15] | SMILES
16 µg/mL (≈ 20.4 µM) | > 128 µg/mL | > 128 µg/mL | 128 µg/mL (≈ 163 µM) | > 128 µg/mL | 128 µg/mL (≈ 163 µM) | > 128 µg/mL | 16 µg/mL (≈ 20.4 µM) | 128 µg/mL (≈ 163 µM) | 64 µg/mL (≈ 81.6 µM) | 64 µg/mL (≈ 81.6 µM) | 128 µg/mL (≈ 163 µM) | 2 µg/mL (≈ 2.55 µM) | > 128 µg/mL | 128 µg/mL (≈ 163 µM) | CC(C)(O/N=C(\C(=O)N[C@@H]1C(=O)N2C(C(=O)[O-])=C(C[n+]3cnc(N)c(NCCNC(=O)c4ccc(O)c(C(=O)O)c4)c3)CSC12)c1csc(N)n1)C(=O)O (stereo partly drawn) [Compound 33]
8 µg/mL (≈ 10.4 µM) | 64 µg/mL (≈ 83 µM) | 1 µg/mL (≈ 1.3 µM) | 4 µg/mL (≈ 5.19 µM) | 1 µg/mL (≈ 1.3 µM) | 2 µg/mL (≈ 2.59 µM) | 16 µg/mL (≈ 20.8 µM) | 0.25 µg/mL (≈ 0.324 µM) | 1 µg/mL (≈ 1.3 µM) | 8 µg/mL (≈ 10.4 µM) | 1 µg/mL (≈ 1.3 µM) | 4 µg/mL (≈ 5.19 µM) | 1 µg/mL (≈ 1.3 µM) | 32 µg/mL (≈ 41.5 µM) | 32 µg/mL (≈ 41.5 µM) | CC(C)(O/N=C(\C(=O)N[C@@H]1C(=O)N2C(C(=O)[O-])=C(C[n+]3cnc(N)c(NCCCNC(=O)c4ccc(O)c(O)c4)c3)CSC12)c1csc(N)n1)C(=O)O (stereo partly drawn) [Compound 31]
4 µg/mL (≈ 5.18 µM) | > 128 µg/mL | 4 µg/mL (≈ 5.18 µM) | 16 µg/mL (≈ 20.7 µM) | 8 µg/mL (≈ 10.4 µM) | 4 µg/mL (≈ 5.18 µM) | > 128 µg/mL | 0.25 µg/mL (≈ 0.324 µM) | 2 µg/mL (≈ 2.59 µM) | 4 µg/mL (≈ 5.18 µM) | 2 µg/mL (≈ 2.59 µM) | 4 µg/mL (≈ 5.18 µM) | 1 µg/mL (≈ 1.3 µM) | > 128 µg/mL | 64 µg/mL (≈ 82.9 µM) | Cn1cc(O)c(=O)cc1C(=O)NCCNc1c[n+](CC2=C(C(=O)[O-])N3C(=O)[C@@H](NC(=O)/C(=N\OC(C)(C)C(=O)O)c4csc(N)n4)C3SC2)cnc1N (stereo partly drawn) [Compound 2]
8 µg/mL (≈ 10.2 µM) | 16 µg/mL (≈ 20.4 µM) | 8 µg/mL (≈ 10.2 µM) | 16 µg/mL (≈ 20.4 µM) | 4 µg/mL (≈ 5.1 µM) | 16 µg/mL (≈ 20.4 µM) | 128 µg/mL (≈ 163 µM) | > 128 µg/mL | 1 µg/mL (≈ 1.27 µM) | 8 µg/mL (≈ 10.2 µM) | 32 µg/mL (≈ 40.8 µM) | 8 µg/mL (≈ 10.2 µM) | 8 µg/mL (≈ 10.2 µM) | > 128 µg/mL | 64 µg/mL (≈ 81.6 µM) | CC(C)(O/N=C(\C(=O)N[C@@H]1C(=O)N2C(C(=O)[O-])=C(C[n+]3cnc(N)c(NC(=O)CCNC(=O)c4ccc(O)c(O)c4)c3)CSC12)c1csc(N)n1)C(=O)O (stereo partly drawn) [Compound 28]
1 µg/mL (≈ 1.3 µM) | 16 µg/mL (≈ 20.8 µM) | 4 µg/mL (≈ 5.19 µM) | 4 µg/mL (≈ 5.19 µM) | 0.5 µg/mL (≈ 0.649 µM) | 4 µg/mL (≈ 5.19 µM) | 128 µg/mL (≈ 166 µM) | < 0.0625 µg/mL | 0.5 µg/mL (≈ 0.649 µM) | 8 µg/mL (≈ 10.4 µM) | 2 µg/mL (≈ 2.59 µM) | 1 µg/mL (≈ 1.3 µM) | 0.25 µg/mL (≈ 0.324 µM) | 32 µg/mL (≈ 41.5 µM) | 64 µg/mL (≈ 83 µM) | CC(C)(O/N=C(\C(=O)N[C@@H]1C(=O)N2C(C(=O)[O-])=C(C[n+]3cnc(N)c(NC(=O)CNC(=O)c4ccc(O)c(O)c4)c3)CSC12)c1csc(N)n1)C(=O)O (stereo partly drawn) [Compound 32]
